Test results published in PubChem BioAssay (NCI).
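Cells were grown in 96-well plates and exposed to each compound for 48 hours at five concentrations; endpoints were interpolated linearly between bracketing concentrations, or set to the highest concentration if not reached. GI50 is the concentration that inhibits growth by half. TGI: total growth inhibition.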

What was measured:
Experiment in all cases: NCI tumour cell line growth inhibition, 48 h
KM12 colon = test system: KM12 colon
CCRF-CEM leukemia = test system: CCRF-CEM leukemia
U251 CNS = test system: U251 CNS
SK-MEL-2 melanoma = test system: SK-MEL-2 melanoma
NCI-H23 lung = test system: NCI-H23 lung
SK-MEL-5 melanoma = test system: SK-MEL-5 melanoma
UACC-257 melanoma = test system: UACC-257 melanoma
IGROV1 ovarian = test system: IGROV1 ovarian
SK-MEL-28 melanoma = test system: SK-MEL-28 melanoma
MDA-MB-231 breast = test system: MDA-MB-231 breast

Row | Structure (SMILES) | TGI (KM12 colon) | TGI (CCRF-CEM leukemia) | TGI (U251 CNS) | TGI (SK-MEL-2 melanoma) | TGI (NCI-H23 lung) | TGI (SK-MEL-5 melanoma) | TGI (UACC-257 melanoma) | TGI (IGROV1 ovarian) | GI50 (KM12 colon) | GI50 (U251 CNS) | GI50 (SK-MEL-2 melanoma) | GI50 (SK-MEL-5 melanoma) | GI50 (UACC-257 melanoma) | GI50 (IGROV1 ovarian) | GI50 (SK-MEL-28 melanoma) | TGI (SK-MEL-28 melanoma) | GI50 (MDA-MB-231 breast) | TGI (MDA-MB-231 breast) | GI50 (CCRF-CEM leukemia) | GI50 (NCI-H23 lung)
1 | CCc1ccc(Nc2cc(=O)[nH]c(=S)n2C)cc1 | > 100 µM | > 100 µM | > 100 µM | > 100 µM | > 100 µM | > 100 µM | > 100 µM | > 100 µM | – | – | – | – | – | – | – | – | – | – | – | –
2 | ClC1=NC(Cl)C(Cl)=N/C1=N\c1ncn[nH]1 (stereo not given) | 4.79 µM | – | 17 µM | 5.63 µM | – | 18.7 µM | 4.25 µM | 4.63 µM | 2.27 µM | 4.88 µM | 2.61 µM | 5.57 µM | 1.7 µM | 2.23 µM | 1.95 µM | 4.04 µM | 1.79 µM | 3.55 µM | – | –
3 | N#Cc1cccc(/C=C(/C(=O)c2ccccc2)c2ccccc2)c1 | 11.6 µM | 12.8 µM | 12.5 µM | – | 17.1 µM | 15.6 µM | 18.2 µM | 25.3 µM | 3.31 µM | 3.43 µM | – | 4.04 µM | 4.05 µM | 4.27 µM | 5.35 µM | 19.1 µM | 4.25 µM | > 100 µM | 2.56 µM | 3.52 µM
4 | CO/N=C(/COc1c(-c2ccccc2)oc2ccccc2c1=O)c1ccc(OC)cc1 | > 100 µM | > 100 µM | > 100 µM | > 100 µM | > 100 µM | – | > 100 µM | > 100 µM | 56.1 µM | > 100 µM | > 100 µM | – | > 100 µM | > 100 µM | > 100 µM | > 100 µM | 31.3 µM | > 100 µM | 60 µM | > 100 µM
5 | CCOC(=O)N1N=NC2C3OC(C[C@@]3(C#N)OC(C)=O)[C@H]21 (stereo not given in full) | > 100 µM | > 100 µM | > 100 µM | > 100 µM | > 100 µM | > 100 µM | > 100 µM | > 100 µM | – | – | – | – | – | – | – | > 100 µM | – | – | – | –
6 | CCCCCCCCCC1C(C)c2c([nH]c3ccccc23)C2C(=O)N(c3ccccc3)C(=O)C21 (stereo not given) | 16.2 µM | 8.05 µM | 26.7 µM | 32.2 µM | 13.6 µM | 31.6 µM | 29.3 µM | 35.3 µM | – | – | – | – | – | – | – | 4.7 µM | – | – | – | –
7 | CCC[CH2][Sn]([CH2]CCC)([O]C(=O)c1cc(OC)c(OC)cc1OC)[O]C(=O)c1cc(OC)c(OC)cc1OC | 4.07 µM | 1.11 µM | 2.66 µM | 2.54 µM | 1.96 µM | 3.18 µM | 3.31 µM | 2.96 µM | 1.75 µM | 1.35 µM | 1.26 µM | 1.6 µM | 1.29 µM | 1.43 µM | 0.971 µM | 2.23 µM | – | – | 0.295 µM | 0.674 µM
8 | Cc1ccc(NC(=O)CC/C(CC(=O)c2ccc(F)cc2)=N\NC(=O)C(=O)NN)cc1C | > 100 µM | > 100 µM | > 100 µM | > 100 µM | > 100 µM | > 100 µM | > 100 µM | > 100 µM | – | – | – | – | – | – | – | > 100 µM | – | – | – | –
